Assay results published in patent US20240116985A1, “STAPLED PEPTIDES AND METHODS THEREOF” (priority 2020, published 2024).
Converted amounts (≈) assume the structure as drawn. Where two headings read alike, the source gives them in different places.

Key:
[1] = Solubility in PBS; type: physicochemical
Method in brief: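 Solubility is derived from HPLC peak areas: the ratio of the PBS supernatant peak to a 50 μM DMSO peptide peak, times 50 uM.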

[2] = CHI Log D procedure; type: physicochemical; details: pH 7.4, CHI Log D
[3] = molecular target: T1, beta-catenin/TCF4 engagement (Homo sapiens, UniProt P35222); assay: Nano-BRET target engagement assay (B-cat-Halo & TCF4-Luc in HEK293 cells); type: cell-based
T1 construct: expressed in transfected cells; host or cells: HEK293
T1 sequence (P35222 1-781): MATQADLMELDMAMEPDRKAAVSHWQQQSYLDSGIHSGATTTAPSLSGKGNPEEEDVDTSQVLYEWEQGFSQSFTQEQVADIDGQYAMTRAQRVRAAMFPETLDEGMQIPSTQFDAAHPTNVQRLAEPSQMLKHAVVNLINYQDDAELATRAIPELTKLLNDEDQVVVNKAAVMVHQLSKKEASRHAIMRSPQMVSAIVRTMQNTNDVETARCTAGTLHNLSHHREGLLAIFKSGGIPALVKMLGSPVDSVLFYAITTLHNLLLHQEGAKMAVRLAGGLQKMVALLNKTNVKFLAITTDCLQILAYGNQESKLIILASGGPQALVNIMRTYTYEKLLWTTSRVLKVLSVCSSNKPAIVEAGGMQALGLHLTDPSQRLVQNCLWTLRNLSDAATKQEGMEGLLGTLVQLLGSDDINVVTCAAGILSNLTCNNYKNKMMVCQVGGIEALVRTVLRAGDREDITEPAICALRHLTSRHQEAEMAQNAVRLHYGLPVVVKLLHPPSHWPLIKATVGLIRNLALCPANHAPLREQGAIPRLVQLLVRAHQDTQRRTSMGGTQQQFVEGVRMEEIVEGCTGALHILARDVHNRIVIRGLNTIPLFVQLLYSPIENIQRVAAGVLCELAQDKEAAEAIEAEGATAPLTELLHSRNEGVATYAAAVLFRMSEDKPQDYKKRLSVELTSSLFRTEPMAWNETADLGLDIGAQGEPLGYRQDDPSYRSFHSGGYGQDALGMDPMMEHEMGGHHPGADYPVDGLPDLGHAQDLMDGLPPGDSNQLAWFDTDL

[4] = molecular target: T2, full-length beta-Catenin (Uniprot ID P35222) (Homo sapiens, UniProt P35222); assay: Fluorescence polarization IC50 (beta-catenin / 5FAM-TCF4 10-53 competition); type: binding
T2 construct: 10 nM full-length beta-Catenin (Uniprot ID P35222)
T2 sequence (P35222 1-781): T1 sequence (P35222 1-781)

[5] = absolute IC50, read-out: NanoBRET Abs IC50

SMILES | Solubility ([1]; Solubility (uM)) [µM] | chromatographic logD [2] | IC50 [3, 5] [nM] | IC50 ([4]; read-out: beta-Catenin FP IC50) [nM] | Solubility [1] [µM] | IC50 ([3]; read-out: NanoBRET IC50) [nM] | inhibition at 10 µM ([3]; HEK293, 10 uM, read-out: NanoBRET % inh @ 10 uM) [%] | IC50 ([4]; fluorescence polarization, beta-catenin, read-out: FP EC50) [nM] | IC50 ([3]; read-out: NanoBRET Abs IC50) [nM] | logD [2]
CC(=O)N1CCC[C@]12CC=CCCCC1(CCCC=CCCCOC(=O)N3CC[C@@](C(=O)N[C@@H](Cc4ccsc4)C(=O)N[C@@H](Cc4csc5ccccc45)C(=O)N[C@@H](CCC(N)=O)C(N)=O)(C3)NC(=O)[C@H](CC(N)=O)NC(=O)[C@H](Cc3ccccc3)NC(=O)[C@H](C)NC(=O)[C@H](C)NC(=O)[C@H](CCC(N)=O)NC(=O)[C@H](CC(=O)O)NC1=O)NC(=O)[C@H](CC(C)(C)C)NC(=O)[C@H](CC(=O)O)NC2=O (stereo partly drawn) [I-838, Ac-PL3-Asp-Npg-B5-Asp-Gln-Ala-Ala-Phe-Asn-PyrS2-3Thi-BztA-Gln-NH2] | 41 (≈ 79.2 µg/mL) | 2.19 | 17400 | 12 | – | – | – | – | – | –
CC(=O)N1CCC[C@]12CC=CCCCC1(CCCC=CCCCOC(=O)N3CC[C@@](C(=O)N[C@@H](Cc4ccsc4)C(=O)N[C@@H](Cc4csc5ccccc45)C(=O)N[C@@H](Cc4c[nH]cn4)C(N)=O)(C3)NC(=O)[C@H](CC(N)=O)NC(=O)[C@H](Cc3ccccc3)NC(=O)[C@H](C)NC(=O)[C@H](C)NC(=O)[C@H](CCC(N)=O)NC(=O)[C@H](CC(=O)O)NC1=O)NC(=O)[C@H](CC(C)(C)C)NC(=O)[C@H](CC(=O)O)NC2=O (stereo partly drawn) [I-839, Ac-PL3-Asp-Npg-B5-Asp-Gln-Ala-Ala-Phe-Asn-PyrS2-3Thi-BztA-His-NH2] | 13 (≈ 25.2 µg/mL) | 2.27 | 41900 | 7 | – | – | – | – | – | –
CC(=O)N1CCC[C@]12CC=CCCCC1(CCCC=CCCCOC(=O)N3CC[C@@](C(=O)N[C@@H](Cc4ccsc4)C(=O)N[C@@H](Cc4csc5ccccc45)C(=O)N[C@@H](CCC(N)=O)C(N)=O)(C3)NC(=O)[C@H](CC(N)=O)NC(=O)[C@H](Cc3ccccc3)NC(=O)[C@H](C)NC(=O)[C@H](C)NC(=O)[C@H](CCCNC(N)=O)NC(=O)[C@H](CC(=O)O)NC1=O)NC(=O)[C@H](CC(C)(C)C)NC(=O)[C@H](CC(=O)O)NC2=O (stereo partly drawn) [I-840, Ac-PL3-Asp-Npg-B5-Asp-Cit-Ala-Ala-Phe-Asn-PyrS2-3Thi-BztA-Gln-NH2] | 32 (≈ 62.7 µg/mL) | 2.19 | 22300 | 16 | – | – | – | – | – | –
CC(=O)N1CCC[C@]12CC=CCCCC1(CCCC=CCCCOC(=O)N3CC[C@@](C(=O)N[C@@H](Cc4ccsc4)C(=O)N[C@@H](Cc4csc5ccccc45)C(=O)N[C@@H](Cc4c[nH]cn4)C(N)=O)(C3)NC(=O)[C@H](CC(N)=O)NC(=O)[C@H](Cc3ccccc3)NC(=O)[C@H](C)NC(=O)[C@H](C)NC(=O)[C@H](CCCNC(N)=O)NC(=O)[C@H](CC(=O)O)NC1=O)NC(=O)[C@H](CC(C)(C)C)NC(=O)[C@H](CC(=O)O)NC2=O (stereo partly drawn) [I-841, Ac-PL3-Asp-Npg-B5-Asp-Cit-Ala-Ala-Phe-Asn-PyrS2-3Thi-BztA-His-NH2] | 14 (≈ 27.6 µg/mL) | 2.26 | 34400 | 12 | – | – | – | – | – | –
CC(=O)N1CCC[C@]12CC=CCCCC1(CCCC=CCCCOC(=O)N3CC[C@@](C(=O)N[C@@H](Cc4ccsc4)C(=O)N[C@@H](Cc4csc5ccccc45)C(=O)N[C@@H](CCC(N)=O)C(N)=O)(C3)NC(=O)[C@H](CC(N)=O)NC(=O)[C@H](Cc3ccccc3)NC(=O)[C@H](C)NC(=O)[C@H](C)NC(=O)[C@H](Cc3ccc(O)cc3)NC(=O)[C@H](CC(=O)O)NC1=O)NC(=O)[C@H](CC(C)(C)C)NC(=O)[C@H](CC(=O)O)NC2=O (stereo partly drawn) [I-842, Ac-PL3-Asp-Npg-B5-Asp-Tyr-Ala-Ala-Phe-Asn-PyrS2-3Thi-BztA-Gln-NH2] | – | 2.39 | 47900 | 34 | 10 (≈ 19.7 µg/mL) | – | – | – | – | –
CC(=O)N1CCC[C@]12CC=CCCCC1(CCCC=CCCCOC(=O)N3CC[C@@](C(=O)N[C@@H](Cc4ccsc4)C(=O)N[C@@H](Cc4csc5ccccc45)C(=O)N[C@@H](CCC(N)=O)C(N)=O)(C3)NC(=O)[C@H](CC(N)=O)NC(=O)[C@H](Cc3ccccc3)NC(=O)[C@H](C)NC(=O)[C@H](C)NC(=O)[C@H]([C@@H](C)O)NC(=O)[C@H](CC(=O)O)NC1=O)NC(=O)[C@H](CC(C)(C)C)NC(=O)[C@H](CC(=O)O)NC2=O (stereo partly drawn) [I-844, Ac-PL3-Asp-Npg-B5-Asp-Thr-Ala-Ala-Phe-Asn-PyrS2-3Thi-BztA-Gln-NH2] | 35 (≈ 66.6 µg/mL) | 2.31 | – | 6 | – | 10700 | – | – | – | –
CC(=O)N1CCC[C@]12CC=CCCCC1(CCCC=CCCCOC(=O)N3CC[C@@](C(=O)N[C@@H](Cc4ccsc4)C(=O)N[C@@H](Cc4csc5ccccc45)C(=O)N[C@@H](CCC(N)=O)C(N)=O)(C3)NC(=O)[C@H](CC(N)=O)NC(=O)[C@H](Cc3ccccc3)NC(=O)[C@H](C)NC(=O)[C@H](C)NC(=O)[C@H](CC(C)C)NC(=O)[C@H](CC(=O)O)NC1=O)NC(=O)[C@H](CC(C)(C)C)NC(=O)[C@H](CC(=O)O)NC2=O (stereo partly drawn) [I-846, Ac-PL3-Asp-Npg-B5-Asp-Leu-Ala-Ala-Phe-Asn-PyrS2-3Thi-BztA-Gln-NH2] | 18 (≈ 34.5 µg/mL) | 2.42 | – | 56 | – | – | 4.3 | 35 | – | –
CC(=O)N1CCC[C@]12CC=CCCCC1(CCCC=CCCCOC(=O)N3CC[C@@](C(=O)N[C@@H](Cc4ccsc4)C(=O)N[C@@H](Cc4csc5ccccc45)C(=O)N[C@@H](Cc4c[nH]cn4)C(N)=O)(C3)NC(=O)[C@H](CC(N)=O)NC(=O)[C@H](Cc3ccccc3)NC(=O)[C@H](C)NC(=O)[C@H](C)NC(=O)[C@H](CC(C)C)NC(=O)[C@H](CC(=O)O)NC1=O)NC(=O)[C@H](CC(C)(C)C)NC(=O)[C@H](CC(=O)O)NC2=O (stereo partly drawn) [I-847, Ac-PL3-Asp-Npg-B5-Asp-Leu-Ala-Ala-Phe-Asn-PyrS2-3Thi-BztA-His-NH2] | – | 2.51 | – | 28 | 10 (≈ 19.3 µg/mL) | – | – | – | > 20000 | –
CC(=O)N1CCC[C@]12CC=CCCCC1(CCCC=CCCCOC(=O)N3CC[C@@](C(=O)N[C@@H](Cc4ccsc4)C(=O)N[C@@H](Cc4csc5ccccc45)C(N)=O)(C3)NC(=O)[C@H](CC(N)=O)NC(=O)[C@H](Cc3ccccc3)NC(=O)[C@H](C)NC(=O)[C@H](C)NC(=O)[C@H](CC(N)=O)NC(=O)[C@H](CC(=O)O)NC1=O)NC(=O)[C@H](CC(C)(C)C)NC(=O)[C@H](CC(=O)O)NC2=O (stereo partly drawn) [I-857, Ac-PL3-Asp-Npg-B5-Asp-Asn-Ala-Ala-Phe-Asn-PyrS2-3Thi-BztA-NH2] | – | 2.58 | – | 15 | 10 (≈ 17.9 µg/mL) | 50600 | – | – | 30600 | –
CC(=O)N1CCC[C@]12CC=CCCCC1(CCCC=CCCCOC(=O)N3CC[C@@](C(=O)N[C@@H](Cc4ccsc4)C(=O)N[C@@H](Cc4csc5ccccc45)C(N)=O)(C3)NC(=O)[C@H](CC(N)=O)NC(=O)[C@H](Cc3ccccc3)NC(=O)[C@H](C)NC(=O)[C@H](C)NC(=O)[C@H](CCC(N)=O)NC(=O)[C@H](CC(=O)O)NC1=O)NC(=O)[C@H](CC(C)(C)C)NC(=O)[C@H](CC(=O)O)NC2=O (stereo partly drawn) [I-858, Ac-PL3-Asp-Npg-B5-Asp-Gln-Ala-Ala-Phe-Asn-PyrS2-3Thi-BztA-NH2] | 18 (≈ 32.5 µg/mL) | 2.54 | – | 34 | – | – | – | – | > 20000 | –
CC(=O)N1CCC[C@]12CC=CCCCC1(CCCC=CCCCOC(=O)N3CC[C@@](C(=O)N[C@@H](Cc4ccsc4)C(=O)N[C@@H](Cc4csc5ccccc45)C(N)=O)(C3)NC(=O)[C@H](CC(N)=O)NC(=O)[C@H](Cc3ccccc3)NC(=O)[C@H](C)NC(=O)[C@H](C)NC(=O)[C@H](Cc3c[nH]cn3)NC(=O)[C@H](CC(=O)O)NC1=O)NC(=O)[C@H](CC(C)(C)C)NC(=O)[C@H](CC(=O)O)NC2=O (stereo partly drawn) [I-863, Ac-PL3-Asp-Npg-B5-Asp-His-Ala-Ala-Phe-Asn-PyrS2-3Thi-BztA-NH2] | – | – | – | 22 | 10 (≈ 18.1 µg/mL) | – | – | – | > 20000 | 2.28
